Measurements from patent publication EP0175171A2, “Use of 3,7,11,15-tetramethyl-2,4,6,10,14-hexadecapentaenoic acid for enhancing the effect of anti-tumour agents” (Eisai Co., Ltd., priority 1984, dated 1986).
Values after ≈ are worked out from the molar mass of the structure shown. Structures can show the parent of a compound that is named as a salt.

Tests used:
HeLa.S3 cell [1] = experiment: Enhancement of cytocidal effect: colony formation of HeLa S3 cells, known carcinostatic drug added simultaneously with the compound of the present invention, 7 days; assay type: cell-based, human; conditions: for enhancement of the cytocidal effect of a carcinostatic drug: conclusion in words from the figures of Table 2 (CPM by the S9 mix protocol)
Procedure: Effect of the simultaneous use of a known carcinostatic agent and the compound (I) (Enhancement of cytocidal effect) • (1) Experimental material and procedure • ① Cell: Epithelical cell from human uterocervical cancer, HeLa.S3 cell • ② Cultivation: The cell was cultivated using a culture fluid obtained by adding 10 parts of fetal calf serum to 90 parts of Eagles Minimum Essential Medium in an incuvator having a carbon dioxide concentration controlled to 5% at 37°C. • ③ Drug: The compound of the present invention was added as a solution in dimethyl sulfoxide(DMSO) of a final DMSO concentration of 0.1% to the culture fluid. The clinical injections as shown in Table 1 were added to the culture fluid as a known carcinostatic drug. […] After the cultivation for 7 days, the cells were fixed with methanol and subjected to Giemsa's staining, followed by calculation of the number of colonies containing at least 20 cells under a stereomicroscope. The concentration (ng/mℓ) of the carcinostatic drug required to decrease the ratio of the number of colonies of a treated group to that of an untreated group (control) to 50% were determined and are shown as "IC50".

HeLa.S3 cell [2] = experiment: cells; conditions: Homo sapiens
Procedure: The clinical injections as shown in Table 1 were added to the culture fluid as a known carcinostatic drug. [formula] • ④ Experimental procedure: 150 epithelical cells from human uterocervical cancer (HeLaS3 cell) were planted in each plastic dish of a diameter of 60 mm. […] After the cultivation for 7 days, the cells were fixed with methanol and subjected to Giemsa's staining, followed by calculation of the number of colonies containing at least 20 cells under a stereomicroscope. The concentration (ng/mℓ) of the carcinostatic drug required to decrease the ratio of the number of colonies of a treated group to that of an untreated group (control) to 50% were determined and are shown as "IC50".

[3] = Toxicological test, oral administration for 14 days; assay type: in vivo; conditions: female ICR mice, orally, 14 days, 40, 200 or 400 mg/kg/day
Procedure: The compound of the present invention, 3,7,11,15-tetramethyl-2,4,6,10,14-hexadecapentaenoic acid, was administered orally to each group consisting of six female ICR mice for 14 days at a dosage of 40, 200 or 400 mg/kg/day, respectively, to observe changes in the weight, the mortality or the like.

[4] = Homo sapiens, HeLa S3, compound of the present invention 0 M; listed as 1): based on case where both compound and drug are 0, read-out: IC50 (ng/ml) 0 a)
[5] = Homo sapiens, HeLa S3, compound of the present invention 0 M; listed as 2): based on case where drug is 0 at the same compound concentration, read-out: IC50 (ng/ml) 0 a)
[6] = Homo sapiens, HeLa S3, compound of the present invention 3.2×10^-5 M; listed as 1): based on case where both compound and drug are 0, read-out: IC50 (ng/ml) 3.2×10^-5 d)
[7] = Homo sapiens, HeLa S3, compound of the present invention 3.2×10^-5 M; listed as 2): based on case where compound is 3.2×10^-5 M and drug is 0, read-out: IC50 (ng/ml) 3.2×10^-5 d)
[8] = Homo sapiens, HeLa S3, compound of the present invention 10^-5 M; listed as 1): based on case where both compound and drug are 0, read-out: IC50 (ng/ml) 10^-5 c)
[9] = Homo sapiens, HeLa S3, compound of the present invention 10^-5 M; listed as 2): based on case where compound is 10^-5 M and drug is 0, read-out: IC50 (ng/ml) 10^-5 c)
[10] = Homo sapiens, HeLa S3, compound of the present invention 10^-6 M; listed as 1): based on case where both compound and drug are 0, read-out: IC50 (ng/ml) 10^-6 b)
[11] = Homo sapiens, HeLa S3, compound of the present invention 10^-6 M; listed as 2): based on case where compound is 10^-6 M and drug is 0, read-out: IC50 (ng/ml) 10^-6 b)

Row | Molecule | IC50 (HeLa.S3 cell [1]; [4]) [ng/mL] | IC50 (HeLa.S3 cell [1]; [5]) [ng/mL] | IC50 (HeLa.S3 cell [1]; [6]) [ng/mL] | IC50 (HeLa.S3 cell [1]; [7]) [ng/mL] | IC50 (HeLa.S3 cell [1]; [8]) [ng/mL] | IC50 (HeLa.S3 cell [1]; [9]) [ng/mL] | IC50 (HeLa.S3 cell [1]; [10]) [ng/mL] | IC50 (HeLa.S3 cell [1]; [11]) [ng/mL] | enhancement of the cytocidal effect of a carcinostatic drug (HeLa.S3 cell [1]) | also measured
1 | O=c1[nH]cc(F)c(=O)[nH]1 [5-FU, fluorouracil] | 648 | 648 | 267 | 347 | 329 | 369 | 375 | 388 | particularly remarkable | –
2 | Cc1ncc(CNC(=O)N(CCCl)N=O)c(N)n1 [ACNU, minustine hydrochloride] | 135 | 135 | 102 | 136 | 146 | 150 | 143 | 147 | – | –
3 | COc1cccc2c1C(=O)c1c(O)c3c(c(O)c1C2=O)C[C@@](O)(C(=O)CO)C[C@@H]3O[C@H]1C[C@H](N)[C@H](O)[C@H](C)O1 [ADM, doxorubicin hydrochloride] | 3.79 | 3.79 | 1.88 | 3.14 | 2.43 | 4.15 | 3.1 | 3.51 | – | –
4 | Nc1ccn([C@@H]2O[C@H](CO)[C@@H](O)[C@@H]2O)c(=O)n1 [Ara-C, cytarabine] | 10.9 | 10.9 | 6.25 | 11.6 | 11.4 | 12.4 | 11.9 | 12 | – | –
5 | O=P1(N(CCCl)CCCl)NCCCO1 (centres unmarked) [CPM, cyclophosphamide] | – | – | – | – | – | – | – | – | particularly remarkable | IC50 (HeLa.S3 cell [2]; HeLa S3, read-out: IC50 (ng/ml) 0 a), S9 mix protocol; compound of the present invention 0 M; listed as 1): based on case where both compound and drug are 0): 4210 ng/mL (≈ 16.1 µM); IC50 (HeLa.S3 cell [2]; HeLa S3, read-out: IC50 (ng/ml) 0 a), S9 mix protocol; compound of the present invention 0 M; listed as 2): based on case where drug is 0 at the same compound concentration): 4210 ng/mL (≈ 16.1 µM); IC50 (HeLa.S3 cell [2]; HeLa S3, read-out: IC50 (ng/ml) 3.2×10^-5 d), S9 mix protocol; compound of the present invention 3.2×10^-5 M; listed as 1)): 1220 ng/mL (≈ 4.69 µM); IC50 (HeLa.S3 cell [2]; HeLa S3, read-out: IC50 (ng/ml) 3.2×10^-5 d), S9 mix protocol; compound of the present invention 3.2×10^-5 M; listed as 2)): 2300 ng/mL (≈ 8.82 µM); IC50 (HeLa.S3 cell [2]; HeLa S3, read-out: IC50 (ng/ml) 10^-5 c), S9 mix protocol; compound of the present invention 10^-5 M; listed as 1)): 1330 ng/mL (≈ 5.08 µM); IC50 (HeLa.S3 cell [2]; HeLa S3, read-out: IC50 (ng/ml) 10^-5 c), S9 mix protocol; compound of the present invention 10^-5 M; listed as 2)): 1970 ng/mL (≈ 7.56 µM); IC50 (HeLa.S3 cell [2]; HeLa S3, read-out: IC50 (ng/ml) 10^-6 b), S9 mix protocol; compound of the present invention 10^-6 M; listed as 1)): 3360 ng/mL (≈ 12.9 µM); IC50 (HeLa.S3 cell [2]; HeLa S3, read-out: IC50 (ng/ml) 10^-6 b), S9 mix protocol; compound of the present invention 10^-6 M; listed as 2)): 3160 ng/mL (≈ 12.1 µM)
6 | COC(COC(N)=O)C1=C(N2CC2)C(=O)C(C)=C(N2CC2)C1=O (centres unmarked) [CQ, carboquone] | 0.339 | 0.339 | 0.076 | 0.131 | 0.242 | 0.275 | 0.273 | 0.253 | particularly remarkable | –
7 | CO[C@@]12[C@H](COC(N)=O)C3=C(C(=O)C(C)=C(N)C3=O)N1C[C@@H]1N[C@@H]12 [MMC, mitomycin] | 1.5 | 1.5 | 0.4 | 0.84 | 0.74 | 0.82 | 1.05 | 1.06 | particularly remarkable | –
8 | Cc1c(N)nc([C@H](CC(N)=O)NC[C@H](N)C(N)=O)nc1C(=O)N[C@H](C(=O)N[C@H](C)[C@@H](O)[C@H](C)C(=O)N[C@H](C(=O)NCCc1nc(-c2nc(C(=O)NCCCN[C@@H](C)c3ccccc3)cs2)cs1)[C@@H](C)O)[C@@H](O[C@@H]1O[C@@H](CO)[C@@H](O)[C@H](O)[C@@H]1O[C@H]1O[C@H](CO)[C@@H](O)[C@H](OC(N)=O)[C@@H]1O)c1c[nH]cn1.O=S(=O)(O)O [PEP, pepleomycin sulfate] | – | – | – | – | – | – | – | – | particularly remarkable | –
9 | S=P(N1CC1)(N1CC1)N1CC1 [Thio-TEPA, Thio TEPA] | – | – | – | – | – | – | – | – | – | IC50 (HeLa.S3 cell [1]; Homo sapiens, HeLa S3, read-out: IC50 (ng/ml) 0 a), compound of the present invention 0 M; 1): based on case where both compound and drug are 0): 311 ng/mL; IC50 (HeLa.S3 cell [1]; Homo sapiens, HeLa S3, read-out: IC50 (ng/ml) 0 a), compound of the present invention 0 M; listed as 2): based on case where drug is 0 at the same compound concentration): 311 ng/mL; IC50 (HeLa.S3 cell [1]; Homo sapiens, HeLa S3, read-out: IC50 (ng/ml) 3.2×10^-5 d), compound of the present invention 3.2×10^-5 M; 2): based on case where compound is 3.2×10^-5 M and drug is 0): 244 ng/mL; IC50 (HeLa.S3 cell [1]; Homo sapiens, HeLa S3, read-out: IC50 (ng/ml) 3.2×10^-5 d), compound of the present invention 3.2×10^-5 M; listed as 1): based on case where both compound and drug are 0): 274 ng/mL; IC50 (HeLa.S3 cell [1]; Homo sapiens, HeLa S3, read-out: IC50 (ng/ml) 10^-5 c), compound of the present invention 10^-5 M; listed as 1): based on case where both compound and drug are 0): 299 ng/mL; IC50 (HeLa.S3 cell [1]; Homo sapiens, HeLa S3, read-out: IC50 (ng/ml) 10^-5 c), compound of the present invention 10^-5 M; listed as 2): based on case where compound is 10^-5 M and drug is 0): 319 ng/mL; IC50 (HeLa.S3 cell [1]; Homo sapiens, HeLa S3, read-out: IC50 (ng/ml) 10^-6 b), compound of the present invention 10^-6 M; 2): based on case where compound is 10^-6 M and drug is 0): 291 ng/mL; IC50 (HeLa.S3 cell [1]; Homo sapiens, HeLa S3, read-out: IC50 (ng/ml) 10^-6 b), compound of the present invention 10^-6 M; listed as 1): based on case where both compound and drug are 0): 274 ng/mL
10 | CC[C@]1(O)C[C@H]2CN(CCc3c([nH]c4ccccc34)[C@@](C(=O)OC)(c3cc4c(cc3OC)N(C=O)[C@H]3[C@@](O)(C(=O)OC)[C@H](OC(C)=O)[C@]5(CC)C=CCN6CC[C@]43[C@@H]65)C2)C1 [VCR, vincristine sulfate] | 5.5 | 5.5 | 2.63 | 5.65 | 6.38 | 7.7 | 7.44 | 7.45 | – | –
11 | CC(C)=CCCC(C)=CCCC(C)=CC=CC(C)=CC(=O)O [compound of the present invention, 3,7,11,15-tetramethyl-2,4,6,10,14-hexadecapentaenoic acid] | – | – | – | – | – | – | – | – | synergisticly enhances the cytocidal effect of a carcinostatic drug | mortality [3]: No mice died
12 | bleomycin hydrochloride [BLM] | – | – | – | – | – | – | – | – | particularly remarkable | –
